Experimental data as given in patent US20050209278A1, “Piperidinyl- and piperazinyl-sulfonylmethyl hydroxamic acids and their use as protease inhibitors” (priority 2002, published 2005).
Counter-ions that a name gives are not always drawn. Like-named read-outs stand apart in the source and are kept apart here.

Experiments:
[1] = biological target: T1, MMP-1 (Homo sapiens, UniProt P03956); test: In vitro MMP inhibition, Ki determination (fluorogenic substrate II); assay type: biochemical
T1 construct: made in house; host or cells: MMP-1-transfected HT-1080 cells (spent media)
T1 sequence (P03956 100-469): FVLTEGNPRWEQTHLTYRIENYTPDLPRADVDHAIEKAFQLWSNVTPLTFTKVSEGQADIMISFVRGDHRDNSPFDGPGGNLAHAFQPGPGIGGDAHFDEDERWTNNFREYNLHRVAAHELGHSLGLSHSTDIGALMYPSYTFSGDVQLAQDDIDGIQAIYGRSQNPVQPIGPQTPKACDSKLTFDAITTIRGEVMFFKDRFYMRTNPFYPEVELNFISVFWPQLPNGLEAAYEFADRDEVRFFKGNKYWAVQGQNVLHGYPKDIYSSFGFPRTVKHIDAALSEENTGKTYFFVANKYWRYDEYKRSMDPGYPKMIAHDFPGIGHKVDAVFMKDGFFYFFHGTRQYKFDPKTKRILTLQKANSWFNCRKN
Procedure: (§1) Several hydroxamic acids and salts thereof were analyzed in in vitro assays to determine their ability to inhibit the MMP cleavage of peptide substrates. […] and IC50 constants were calculated from the assayed hydroxamic acid-MMP interactions.
(§2) Human recombinant MMP-1, MMP-2, MMP-9, MMP-13, and MMP-14 were used in this assay. All enzymes were prepared in Assignee's laboratories following usual laboratory procedures. Protocols for the preparation and use of these enzymes are available in the scientific literature. See, e.g., Enzyme Nomenclature (Academic Press, San Diego, Calif., 1992) (and the citations therein). See also, Freije et al., “Molecular cloning and expression of collagenase-3, a novel human matrix metalloproteinase produced by breast carcinomas,” J Biol. Chem., 269(24), 16766-16773 (1994).
The MMP-1 proenzyme was purified from the spent media of MMP-1-transfected HT-1080 cells provided by Dr. Harold Welgus of Washington University (St. Louis, Mo.). The protein was purified on a zinc chelating column.
(§3) All MMPs were activated using 4-aminophenylmercuric acetate (“APMA”, Sigma Chemical, St. Louis, Mo.) or trypsin. MMP-9 also was activated using human recombinant MMP-3 (purified in Assignee's laboratory following standard cloning and purification techniques).
(§4) Two fluorogenic, methoxycoumarin-containing polypeptide substrates were used in the MMP inhibition assays: [drawing 427] Here, “Dpa” is 3-(2,4-dinitrophenyl)-L-2,3-diaminopropionyl group, and “MCA” is 7-methoxycoumarin-4-yl acetyl. Substrate (I) was purchased from Baychem (Redwood City, Calif.), and substrate II was prepared Assignee's laboratory. Substrate I was used in the IC50 determination assays, while substrate II was used in the Ki determination assays. In the absence of MMP inhibitory activity, either substrate is cleaved at the Gly-Leu peptide bond. This cleavage separates the highly fluorogenic peptide from the 2,4-dinitrophenyl quencher, thus resulting in increase of fluorescent intensity.
(§5) The stock solutions of the assayed hydroxamic acids (or salts thereof) were prepared in 1% dimethyl sulfoxide (DMSO). These stock solutions were diluted in Buffer A (100 mM Tris-HCl, 100 mM NaCl, 10 mM CaCl2, 0.05% polyoxyethylene 23 lauryl ether, pH 7.5) to obtain solutions with different hydroxamic acid concentrations, i.e., assay solutions with different concentrations of the assayed MMP inhibitory compound. The experiment controls contained the same amount of Buffer A/DMSO as the assayed sample, but contained no hydroxamic acid (or salt thereof).
The assays from which the Ki determinations were made were performed as follows. The assayed hydroxamic acid samples were incubated in separate wells of untreated white polystyrene plates (Nunc Nalgene International, Rochester, N.Y.), and analyzed on a Tecan SpectraFlour Plus plate reader. The excitation wavelength was 330 nm, and the emission wavelength—420 nm. All samples (assayed hydroxamic acids and controls) were incubated in separate plate wells at room temperature for 1 hr in the presence of 4 μM of MMP substrate (II). In the absence of MMP inhibitory activity, substrate II was cleaved at the Gly-Leu bond resulting in an increase of relative fluorescence. Inhibition was observed as a reduced rate of this increase in relative fluorescence. The various hydroxamic acids were analyzed using a single low enzyme concentration with a single substrate concentration fixed at or below the Km. This protocol is a modification of method by Knight et al., FEBS Lett., 296(3), 263-266 (1992). Apparent inhibitory constants were determined by non-linear regression of reaction velocity as a function of inhibitor and enzyme concentration using Morrison's equation, as described by Kuzmic, Anal. Biochem. 286, 45-50 (2000). […] Since the substrate concentration was chosen to be at or below the Km, the apparent Ki's from this analysis were reported as Ki's without correction for the influence of substrate.

[2] = biological target: T2, MMP-14 (Homo sapiens, UniProt P50281); test: as above; assay type: biochemical
T2 construct: The catalytic domain enzyme was expressed in E. coli inclusion bodies, solubilized in urea; made in house
Procedure: as §1, §2
The MMP-14 full length cDNA was provided by Dr. Gregory Goldberg of Washington University (St. Louis, Mo.). The catalytic domain enzyme was expressed in E. coli inclusion bodies, solubilized in urea, purified on a preparative […] reverse phase HPLC column, and then refolded in the presence of zinc acetate and purified for use.
as §3, §4, §5
The assays from which the Ki determinations were made were performed as follows. The assayed hydroxamic acid samples were incubated in separate wells of untreated white polystyrene plates (Nunc Nalgene International, Rochester, N.Y.), and analyzed on a Tecan SpectraFlour Plus plate reader. The excitation wavelength was 330 nm, and the emission wavelength—420 nm. All samples (assayed hydroxamic acids and controls) were incubated in separate plate wells at room temperature for 1 hr in the presence of 4 μM of MMP substrate (II). In the absence of MMP inhibitory activity, substrate II was cleaved at the Gly-Leu bond resulting in an increase of relative fluorescence. Inhibition was observed as a reduced rate of this increase in relative fluorescence. The various hydroxamic acids were analyzed using a single low enzyme concentration with a single substrate concentration fixed at or below the Km. This protocol is a modification of method by Knight et al., FEBS Lett., 296(3), 263-266 (1992). Apparent inhibitory constants were determined by non-linear regression of reaction velocity as a function of inhibitor and enzyme concentration using Morrison's equation, as described by Kuzmic, Anal. Biochem. 286, 45-50 (2000).

[3] = human recombinant enzyme, 4 μM substrate II, room temperature, 1 hr, read-out: MMP-1 Ki
[4] = human recombinant enzyme (catalytic domain), 4 μM substrate II, room temperature, 1 hr, read-out: MMP-14 Ki
[5] = value not in parenthesis, read-out: MMP-1 Ki
[6] = value not in parenthesis, read-out: MMP-14 Ki

| SMILES | Ki [1, 3] [µM] | Ki [2, 4] [µM] | Ki [1, 5] [µM] | Ki [2, 6] [µM] | other results |
| --- | --- | --- | --- | --- | --- |
| CCOc1ccc(N2CCN(S(=O)(=O)C3(C(=O)NO)CCOCC3)CC2)cc1 [Example 3, 4-{[4-(4-ethoxyphenyl)piperazinyl]sulfonyl}perhydro-2H-pyran-4-carbohydroxamic Acid] | 7.53 | 1.26 |  |  |  |
| CCCCCc1ccc(C2CCN(S(=O)(=O)C3(C(=O)NO)CCN(CCOC)CC3)CC2)cc1 [Example 15, N-hydroxy-1-(2-methoxyethyl)-4-{[4-(4-pentylpheyl)piperidin-1-yl]sulfonyl}piperidine-4-carboxamide Hydrochloride] | > 10 | 2.96 |  |  |  |
| CCc1ccc(N2CCN(S(=O)(=O)C3(C(=O)NO)CCOCC3)CC2)nc1 [Example 114] |  |  | 1.61 | 0.097 |  |
| O=C(NO)C1(S(=O)(=O)N2CCN(c3ccc(COCC(F)(F)C(F)(F)C(F)(F)C(F)F)cc3)CC2)CCOCC1 [Example 68] |  |  |  |  | Ki ([1]; MMP-1 Ki, value not in parenthesis): > 10 µM; Ki ([2]; MMP-14 Ki, value not in parenthesis): > 10 µM |
| CCCCOc1ccc(N2CCN(S(=O)(=O)C3(C(=O)NO)CCN(C(=S)N(C)C)CC3)CC2)cc1 [Example 123] |  |  | > 10 | 5.65 |  |
| COc1ccc(N2CCN(S(=O)(=O)C3(C(=O)NO)CCOCC3)CC2)nc1 [Example 109] |  |  | > 10 | > 10 |  |
| CCCCOc1ccc(N2CCN(S(=O)(=O)C3(C(=O)NO)CCN(C(=O)N4CCOCC4)CC3)CC2)cc1 [Example 124] |  |  | > 10 | > 10 |  |
| CCCCCc1ccc(N2CCN(S(=O)(=O)C3(C(=O)NO)CCOCC3)CC2)c(F)c1 [Example 23, 4-{[4-(2-fluoro-4-pentylphenyl)piperazin-1-yl]sulfonyl}-N-hydroxytetrahydro-2H-pyran-4-carboxamide Hydrochloride] | > 10 | > 10 |  |  |  |
| CCCCOc1ccc(N2CCN(S(=O)(=O)C3(C(=O)NO)CCN(c4ccc(OCCOC)nn4)CC3)CC2)cc1 [Example 129] |  |  | > 10 | 1.3 |  |
| COCCN1CCC(C(=O)NO)(S(=O)(=O)N2CCN(c3ccc(OCCCC(F)(F)F)cc3)CC2)CC1 [Example 9, N-hydroxy-1-(2-methoxyethyl)-4-({4-[4-(4,4,4-trifluorobutoxy)phenyl]piperazin-1-yl}sulfonyl)piperidine-4-carboxamide Dihydrochloride] | > 10 | 5.91 |  |  |  |
| COCCN1CCC(C(=O)NO)(S(=O)(=O)N2CCC(c3ccc(OCCCC(F)(F)F)cc3)CC2)CC1 [Example 20, N-hydroxy-1-(2-methoxyethyl)-4-({4-[4-(4,4,4-trifluorobutoxy)phenyl]piperidin-1-yl}sulfonyl)piperidine-4-carboxamide Hydrochloride] | > 10 | 2.67 |  |  |  |
| CCCCOc1ccc(N2CCN(S(=O)(=O)C3(C(=O)NO)CCN(c4ccccn4)CC3)CC2)cc1 [Example 149] |  |  | > 10 | 2.66 |  |
| O=C(NO)C1(S(=O)(=O)N2CCN(c3ncc(Br)cn3)CC2)CCOCC1 [Example 103] |  |  | 0.686 | 0.227 |  |
| CCCCc1cnc(N2CCN(S(=O)(=O)C3(C(=O)NO)CCOCC3)CC2)cn1 [Example 1, 4-{[4-(5-butylpyrazin-2-yl)piperazin-1-yl]sulfonyl}-N-hydroxytetrahydro-2H-pyran-4-carboxamide Dihydrochloride] | > 10 | 4.29 |  |  |  |
| CCCCOc1ccc(N2CCN(S(=O)(=O)C3(C(=O)NO)CCN(c4nccc(C(F)(F)F)n4)CC3)CC2)cc1 [Example 130] |  |  | > 10 | > 10 |  |
| CCCCOc1ccc(C2CCN(S(=O)(=O)C3(C(=O)NO)CCN(CCOC)CC3)CC2)cc1 [Example 16, 4-{[4-(4-butoxyphenyl)piperidin-1-yl]sulfonyl}-N-hydroxy-1-(2-methoxyethyl)piperidine-4-carboxamide Hydrochloride] | > 10 | 2.93 |  |  |  |
| CC(C)(C)N1CCC(C(=O)NO)(S(=O)(=O)N2CCN(c3ccc(OCCCC(F)(F)F)cc3F)CC2)CC1 [Example 116] |  |  | > 10 | 8.03 |  |
| O=C(NO)C1(S(=O)(=O)N2CCN(c3ncccn3)CC2)CCOCC1 [Example 107] |  |  | 1.19 | 6 |  |
